In ChEMBL document CHEMBL1147421, “Diamine derivatives with antiparasitic activities” (Bioorg Med Chem Lett, 2004) one finds EC50 data, which are given here for 16 compounds.

Values joined by “and” are separate entries in the source; they are usually repeats but may differ in a detail not shown here. Equal values may be shown once.

The test system of assay [1] is Plasmodium falciparum. The assay is described as follows: Antiparasitic activity against chloroquine-resistant Plasmodium falciparum W2. In kind it is functional, organism-based.
Assay [2] can be described thus: Effective concentration expressed as antiparasitic activity against Leishmania promastigotes (Leishmania donovani); NA = Not active. In kind it is functional.
Assay [3] has as its system Plasmodium falciparum. The assay can be described thus: Antiparasitic activity against Plasmodium falciparum D6. In kind it is functional, organism-based.
A short description of assay [4]: Antiparasitic activity against Leishmania promastigotes (Leishmania donovani). In kind it is functional.

A word on the EC50: it is the concentration giving half of the maximal effect. In the case of `COc1ccc(CN(CCCCN)Cc2ccc(OC)c(O)c2)cc1O.O=C(O)C(F)(F)F`, the concentration for a half-maximal effect (EC50) result in assay [1], in assay [2] and in assay [3] was “Not Active” throughout.
With `COc1cc(CN(CCCN)Cc2ccc(O)c(OC)c2)ccc1O.O=C(O)C(F)(F)F`, the concentration for a half-maximal effect (EC50) entry in assay [1], in assay [2] and in assay [3] was “Not Active” throughout.
Consider `NCCCN(Cc1ccc(O)cc1)Cc1ccc(O)cc1.O=C(O)C(F)(F)F`, for which the EC50 entry in assay [1], in assay [2] and in assay [3] was “Not Active” in each case.
On to `NCCCN(Cc1ccccc1)Cc1ccc(Cc2ccncc2)cc1.O=C(O)C(F)(F)F`, for which the half-maximal effective concentration (EC50) entry in assay [1], in assay [2] and in assay [3] was “Not Active” throughout.
For `NCCCCN(Cc1ccccc1)Cc1ccncc1.O=C(O)C(F)(F)F`, the EC50 result in assay [1], in assay [2] and in assay [3] was “Not Active” in each case.
Regarding `COc1ccc(CN(CCCCN)Cc2ccc(OC)cc2OC)c(OC)c1.O=C(O)C(F)(F)F`, the values for the EC50 result in assay [1], in assay [2] and in assay [3] (Plasmodium falciparum) were “Not Active”, “Not Active” and 7760 nM, respectively.
Turning to `COc1ccc(CN(CCCN)Cc2ccc(OC)c(O)c2)cc1O.O=C(O)C(F)(F)F`, the EC50 result in assay [1], in assay [2] and in assay [3] was “Not Active” in each case.
On to `NCCCN(Cc1ccncc1)Cc1ccncc1.O=C(O)C(F)(F)F`, for which the EC50 entry in assay [1], in assay [2] and in assay [3] was “Not Active” each time.
Consider `NCCCCN(Cc1ccc(O)cc1)Cc1ccc(O)cc1.O=C(O)C(F)(F)F`, for which the EC50 entry in assay [1], in assay [2] and in assay [3] was “Not Active” in each case.
`NCCCCN(Cc1ccc(OCc2ccccc2)c(OCc2ccccc2)c1)Cc1ccc(OCc2ccccc2)c(OCc2ccccc2)c1`: the half-maximal effective concentration (EC50) was 2230 nM in assay [1] (Plasmodium falciparum), 1860 nM in assay [4] and 3470 nM in assay [3] (Plasmodium falciparum).
Consider `COc1ccc(CN(CCCCN)Cc2ccc(OC)cc2)cc1.O=C(O)C(F)(F)F`, for which the EC50 was 6780 nM in assay [1] (Plasmodium falciparum), 10600 nM in assay [4] and “Not Active” in assay [3].
`NCCCN(Cc1ccccc1)Cc1ccccc1.O=C(O)C(F)(F)F`: the results for the EC50 result in assay [1], in assay [4] and in assay [3] were “Not Active”, 24200 nM and “Not Active”, respectively.
With `NCCCN(Cc1ccc(-c2ccc(Br)cc2)o1)Cc1ccc(-c2ccc(Br)cc2)o1.O=C(O)C(F)(F)F`, the values for the EC50 entry in assay [1], in assay [4] and in assay [3] (Plasmodium falciparum) were “Not Active”, 8510 nM and 5620 nM, respectively.
`NCCCN(Cc1ccc(OCCCc2ccccc2)cc1)Cc1ccc(OCCCc2ccccc2)cc1`: the EC50 was 3440 nM in assay [1]; 5340 nM in assay [1] (Plasmodium falciparum); 940 nM and 1000 nM in assay [4]; 2010 nM in assay [3]; 1880 nM in assay [3] (Plasmodium falciparum).
Take `NCCCN(Cc1ccc(Br)o1)Cc1ccc(Br)o1.O=C(O)C(F)(F)F`: the EC50 entry in assay [1] is “Not Active”; in assay [4], 19800 nM; in assay [3] it was “Not Active”.
Regarding `NCCCCN(Cc1ccc(OCc2c(F)c(F)c(F)c(F)c2F)cc1)Cc1ccc(OCc2c(F)c(F)c(F)c(F)c2F)cc1`, the EC50 is 2070 nM in assay [1]; 2160 nM in assay [1] (Plasmodium falciparum); 2520 nM and 2970 nM in assay [4]; 680 nM in assay [3] (Plasmodium falciparum).
